These results are taken from ChEMBL document CHEMBL1126615, “Structure-activity relationships in prazosin-related compounds. 2. Role of the piperazine ring on alpha-blocking activity” (J Med Chem, 1993).

Assay [1] deals with T1, Adrenergic receptor alpha-2 (Rattus norvegicus, UniProt P22086+P19328+P22909).
T1 sequence (P22086 whole entry): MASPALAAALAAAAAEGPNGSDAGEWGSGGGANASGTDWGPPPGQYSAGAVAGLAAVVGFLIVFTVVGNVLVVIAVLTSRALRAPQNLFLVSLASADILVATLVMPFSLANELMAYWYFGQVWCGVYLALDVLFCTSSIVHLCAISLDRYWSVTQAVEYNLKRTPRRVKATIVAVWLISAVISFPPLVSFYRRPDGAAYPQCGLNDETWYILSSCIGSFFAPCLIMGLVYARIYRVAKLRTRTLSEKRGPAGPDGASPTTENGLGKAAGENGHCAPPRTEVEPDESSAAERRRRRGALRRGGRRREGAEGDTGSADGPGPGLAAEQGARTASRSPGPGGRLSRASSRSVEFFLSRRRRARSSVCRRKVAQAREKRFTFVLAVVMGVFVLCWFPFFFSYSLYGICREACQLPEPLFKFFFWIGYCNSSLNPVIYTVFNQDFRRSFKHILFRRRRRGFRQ
T1 sequence (P19328 whole entry): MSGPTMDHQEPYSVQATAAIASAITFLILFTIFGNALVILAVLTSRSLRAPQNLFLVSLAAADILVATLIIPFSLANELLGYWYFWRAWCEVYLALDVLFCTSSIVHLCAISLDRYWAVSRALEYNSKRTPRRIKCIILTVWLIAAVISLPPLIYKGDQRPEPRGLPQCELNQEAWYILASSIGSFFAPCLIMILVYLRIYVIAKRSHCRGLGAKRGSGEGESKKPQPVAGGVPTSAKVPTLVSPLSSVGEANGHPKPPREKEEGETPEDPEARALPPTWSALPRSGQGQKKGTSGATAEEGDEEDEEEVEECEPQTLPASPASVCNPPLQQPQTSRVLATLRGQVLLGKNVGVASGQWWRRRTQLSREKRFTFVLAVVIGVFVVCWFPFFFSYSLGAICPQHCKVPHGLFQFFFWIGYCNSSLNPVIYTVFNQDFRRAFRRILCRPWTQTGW
T1 sequence (P22909 whole entry): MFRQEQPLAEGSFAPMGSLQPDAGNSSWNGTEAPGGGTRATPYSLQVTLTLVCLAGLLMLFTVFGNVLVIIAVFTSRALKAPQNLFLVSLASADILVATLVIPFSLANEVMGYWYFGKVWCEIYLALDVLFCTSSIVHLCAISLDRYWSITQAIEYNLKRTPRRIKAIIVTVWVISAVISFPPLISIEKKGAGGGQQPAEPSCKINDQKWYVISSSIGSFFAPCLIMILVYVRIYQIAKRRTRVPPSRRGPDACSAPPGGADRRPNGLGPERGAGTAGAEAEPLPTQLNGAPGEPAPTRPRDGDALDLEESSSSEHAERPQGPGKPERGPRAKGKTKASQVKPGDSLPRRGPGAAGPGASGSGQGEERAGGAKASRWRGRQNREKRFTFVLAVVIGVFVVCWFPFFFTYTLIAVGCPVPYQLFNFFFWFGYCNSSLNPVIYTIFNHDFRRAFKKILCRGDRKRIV
The assay can be described thus: Alpha-2 Adrenoceptor blocking activity as antagonism of clonidine-induced depression of field-stimulated prostatic rat vas deferens. The class given is functional, tissue-based.

In assay [2] the target is T2, Adrenergic receptor alpha-1 (Rattus norvegicus, UniProt P15823+P23944+P43140).
T2 sequence (P15823 whole entry): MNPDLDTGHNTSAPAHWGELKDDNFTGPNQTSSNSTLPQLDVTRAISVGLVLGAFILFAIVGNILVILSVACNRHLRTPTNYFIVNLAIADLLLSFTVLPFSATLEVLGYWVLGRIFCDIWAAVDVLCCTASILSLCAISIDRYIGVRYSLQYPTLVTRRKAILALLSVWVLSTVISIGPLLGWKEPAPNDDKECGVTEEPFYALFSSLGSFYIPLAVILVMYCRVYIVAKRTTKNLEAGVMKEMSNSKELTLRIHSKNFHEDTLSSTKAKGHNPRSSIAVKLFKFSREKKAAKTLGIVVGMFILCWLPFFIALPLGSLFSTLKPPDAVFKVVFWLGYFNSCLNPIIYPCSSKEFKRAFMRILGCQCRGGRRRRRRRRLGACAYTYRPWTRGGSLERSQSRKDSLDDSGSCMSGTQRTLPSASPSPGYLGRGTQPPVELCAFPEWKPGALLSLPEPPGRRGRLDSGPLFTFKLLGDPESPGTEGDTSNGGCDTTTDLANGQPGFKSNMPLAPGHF
T2 sequence (P23944 whole entry): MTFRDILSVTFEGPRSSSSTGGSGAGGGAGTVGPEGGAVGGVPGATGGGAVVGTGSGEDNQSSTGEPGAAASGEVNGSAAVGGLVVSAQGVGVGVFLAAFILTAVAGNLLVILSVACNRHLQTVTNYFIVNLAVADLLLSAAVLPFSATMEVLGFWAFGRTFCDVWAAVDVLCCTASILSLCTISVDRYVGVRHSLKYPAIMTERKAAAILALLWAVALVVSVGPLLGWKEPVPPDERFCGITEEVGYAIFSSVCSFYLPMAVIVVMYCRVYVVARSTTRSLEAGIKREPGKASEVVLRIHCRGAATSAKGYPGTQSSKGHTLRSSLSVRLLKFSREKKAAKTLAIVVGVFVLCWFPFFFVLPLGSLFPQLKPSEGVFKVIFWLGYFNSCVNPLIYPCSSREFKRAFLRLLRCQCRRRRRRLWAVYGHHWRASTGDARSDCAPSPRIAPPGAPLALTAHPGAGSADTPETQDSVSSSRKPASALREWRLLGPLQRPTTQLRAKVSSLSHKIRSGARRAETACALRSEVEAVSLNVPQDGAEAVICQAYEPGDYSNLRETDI
T2 sequence (P43140 whole entry): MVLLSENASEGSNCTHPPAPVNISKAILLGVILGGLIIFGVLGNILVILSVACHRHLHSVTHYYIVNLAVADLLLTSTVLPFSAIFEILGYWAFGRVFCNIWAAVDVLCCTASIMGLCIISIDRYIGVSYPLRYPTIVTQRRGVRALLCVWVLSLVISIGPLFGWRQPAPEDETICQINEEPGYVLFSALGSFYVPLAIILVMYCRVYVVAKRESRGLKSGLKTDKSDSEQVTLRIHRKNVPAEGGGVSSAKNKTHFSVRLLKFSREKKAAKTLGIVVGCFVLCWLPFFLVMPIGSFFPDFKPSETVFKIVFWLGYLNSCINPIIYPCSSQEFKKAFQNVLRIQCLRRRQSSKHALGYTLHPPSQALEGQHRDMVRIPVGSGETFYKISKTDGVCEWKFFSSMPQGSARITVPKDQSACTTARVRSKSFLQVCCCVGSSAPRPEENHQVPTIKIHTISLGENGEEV
The assay is described as follows: Alpha-1 Adrenoceptor blocking activity as antagonism of norepinephrine-induced contractions of epididymal portion of rat vas deferens. It counts as functional, tissue-based.

Assay [3] in a line: The alpha1/alpha2 selectivity ratio is the antilog of the difference between pA2 values at alpha1 and alpha-2 adrenoceptor. The class given is functional.

Molecules are shown by their SMILES.

As usually defined, the pA2 is the negative logarithm of the molar antagonist concentration that doubles the agonist concentration needed for the same response.

For `CCC1[C@@H](CC)N(c2nc(N)c3cc(OC)c(OC)cc3n2)CCN1C(=O)c1ccco1` (stereo in doubt; 11) [listing 1 of 2 here], the pA2 in assay [1] came to 5.91; in assay [2], 8.55.
On to `COc1cc2nc(N3CCN(C(=O)c4ccco4)C(C)C3)nc(N)c2cc1OC` (stereo not drawn), for which the Selectivity ratio in assay [3] was found to be 2100. In addition, the pA2 in assay [1] worked out at 5.23; in assay [2], 8.61.
Regarding `CCC1[C@@H](CC)N(c2nc(N)c3cc(OC)c(OC)cc3n2)CCN1C(=O)c1ccco1` (stereo in doubt; 11) [listing 2 of 2 here], the Selectivity ratio in assay [3] worked out at 440.
Consider `COc1cc2nc(NC3CCCCC3NC(=O)c3ccco3)nc(N)c2cc1OC` (cis isomer) [listing 1 of 2 here], for which, in assay [3], the Selectivity ratio was found to be 0.6.
With `COc1cc2nc(N3CCN(C(=O)c4ccco4)C(C)[C@H]3C)nc(N)c2cc1OC` (stereo in doubt; 9) [listing 1 of 2 here], the pA2 in assay [1] turned out to be 6.41; in assay [2], 8.75.
As for `COc1cc2nc(N(C)[C@@H]3CCCCC3N(C)C(=O)c3ccco3)nc(N)c2cc1OC` (stereo in doubt; 5) [listing 1 of 2 here], the pA2 in assay [1] was determined as 5.41; in assay [2] it was 5.8.
`COc1cc2nc(N(C)[C@@H]3CCCCC3N(C)C(=O)c3ccco3)nc(N)c2cc1OC` (stereo in doubt; 6) [listing 1 of 2 here]: in assay [3], the Selectivity ratio came to 1.2.
Same read-out and setting: then `COc1cc2nc(N(C)CCCCCCN(C)C(=O)c3ccco3)nc(N)c2cc1OC`, with 120.
For `COc1cc2nc(N3CCN(C(=O)c4ccco4)C[C@H]3C)nc(N)c2cc1OC`, the Selectivity ratio in assay [3] came to 150. For the same compound, the pA2 in assay [1] is 5.94; in assay [2], 8.13.
Take `COc1cc2nc(N3CCN(C(=O)c4ccco4)C(C)[C@H]3C)nc(N)c2cc1OC` (stereo in doubt; 10) [listing 1 of 2 here]: the Selectivity ratio in assay [3] is 180.
For `COc1cc2nc(N(C)[C@@H]3CCCCC3N(C)C(=O)c3ccco3)nc(N)c2cc1OC` (stereo in doubt; 6) [listing 2 of 2 here], the pA2 in assay [1] was 5.54; in assay [2], 5.64.
Take `CCC1[C@@H](CC)N(c2nc(N)c3cc(OC)c(OC)cc3n2)CCN1C(=O)c1ccco1` (stereo in doubt; 12) [listing 1 of 2 here]: the pA2 in assay [1] is reported as 5.05; in assay [2], 7.09.
For `COc1cc2nc(NC3CCCCC3NC(=O)c3ccco3)nc(N)c2cc1OC` (cis isomer) [listing 2 of 2 here] the same measures were 5.96 and 5.74.
In assay [1], `COc1cc2nc(N3CCN(C(=O)c4ccco4)C4CCCC[C@@H]43)nc(N)c2cc1OC` (stereo in doubt; 13) came in with a pA2 of 5.08.
On to `COc1cc2nc(NC3CCCCC3NC(=O)c3ccco3)nc(N)c2cc1OC` (trans isomer) [listing 1 of 2 here], for which the figures for the pA2 in assay [1] and in assay [2] were 5.04 and 6.07, respectively.
For `COc1cc2nc(NC3CCCCC3NC(=O)c3ccco3)nc(N)c2cc1OC` (trans isomer) [listing 2 of 2 here], the Selectivity ratio in assay [3] was determined as 11.
The compound `COc1cc2nc(N3CCN(C(=O)c4ccco4)C4CCCC[C@@H]43)nc(N)c2cc1OC` (stereo in doubt; 14) showed a pA2 in assay [1] of 5.15.
For the compound `COc1cc2nc(N(C)[C@@H]3CCCCC3N(C)C(=O)c3ccco3)nc(N)c2cc1OC` (stereo in doubt; 5) [listing 2 of 2 here], the Selectivity ratio in assay [3] came to 2.5.
Regarding `COc1cc2nc(N3CCN(C(=O)c4ccco4)C(C)[C@H]3C)nc(N)c2cc1OC` (stereo in doubt; 9) [listing 2 of 2 here], the Selectivity ratio in assay [3] was found to be 220.
Regarding `COc1cc2nc(N3CCN(C(=O)c4ccco4)C(C)[C@H]3C)nc(N)c2cc1OC` (stereo in doubt; 10) [listing 2 of 2 here], the pA2 in assay [1] is on record as 4.86; in assay [2], 7.12.
`CCC1[C@@H](CC)N(c2nc(N)c3cc(OC)c(OC)cc3n2)CCN1C(=O)c1ccco1` (stereo in doubt; 12) [listing 2 of 2 here]: the Selectivity ratio in assay [3] came to 110.
